Patent publication US12091425B2 (AMGEN INC., priority 2016, dated 2024)

Columns and labels:
[1] = target: T1, Mcl-1/Bim interaction, recombinant human Mcl-1 (171-327) (Homo sapiens, UniProt Q07820); experiment: Cell free Mcl-1: Bim Affinity Assay (Mcl-1 HTRF); type: binding
T1 construct: made in house
Summary of the method: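 Read-out is time-resolved FRET after overnight incubation, using a biotin-labelled peptide from human Bim (51-76) as the binding partner; IC50 was derived from competition curves.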

[2] = system: OPM-2 human multiple myeloma cell line; experiment: Cell Viability Assay (OPM-2 10 FBS); type: cell-based; settings: OPM-2 cells, CellTiter-Glo
Summary of the method: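 ATP-based luminescence (CellTiter-Glo) measured after a 16 h compound treatment of OPM-2 cells seeded at 3000 cells/well in 10% FBS medium. IC50 values derived by 4-parameter logistic fitting of serial dilutions.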

[3] = TR-FRET, 0.1 nM Mcl-1 (171-327), 0.05 nM biotin-Bim (51-76)
[4] = Homo sapiens, OPM-2, 16 h, 16 h
[5] = cell free Mcl-1:Bim TR-FRET, recombinant human Mcl-1 (171-327)

T1 sequence (Q07820 171-327): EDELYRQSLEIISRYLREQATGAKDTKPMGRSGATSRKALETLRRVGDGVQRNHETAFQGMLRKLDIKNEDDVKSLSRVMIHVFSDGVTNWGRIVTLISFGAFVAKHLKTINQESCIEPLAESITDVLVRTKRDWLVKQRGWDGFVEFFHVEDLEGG

Compound | IC50 [1, 3] | IC50 [2, 4] | IC50 [1, 5] | IC50 ([2]; 16 h incubation) | IC50 ([2]; 16 h)
COCCO[C@H]1CC[C@@H](C)C[C@@H](COC)S(=O)(=O)NC(=O)c2ccc3c(c2)N(C[C@@H]2CC[C@H]21)C[C@@]1(CCCc2cc(Cl)ccc21)CO3 (single isomer, unassigned) [Example 1040] | 1.04 nM | – | – | 2190 nM | –
COCCO[C@H]1/C=C/C[C@H]2COC[C@@H]2S(=O)(=O)NC(=O)c2ccc3c(c2)N(C[C@@H]2CC[C@H]21)C[C@@]1(CCCc2cc(Cl)ccc21)CO3 (single isomer, unassigned) [Example 1034] | 4.04 nM | – | – | 8050 nM | –
CO[C@@H]1/C=C/[C@H](O)[C@@H]2CC[C@H]2CN2C[C@@]3(CCCc4cc(Cl)ccc43)COc3ccc(cc32)C(=O)NS(=O)(=O)[C@@H](C)C1 (single isomer, unassigned) [Example 490] | – | – | 2.09 nM | – | 7960 nM
C[C@@H]1[C@@H](C)C/C=C/[C@H](OCC(=O)NCC(F)(F)F)[C@@H]2CC[C@H]2CN2C[C@@]3(CCCc4cc(Cl)ccc43)COc3ccc(cc32)C(=O)NS1(=O)=O [Example 297, 2-(((1S,3′R,6′R,7′S,8′E,11′S,12′R)-6-chloro-11′,12′-dimethyl-13′,13′-dioxido-15′-oxo-3,4-dihydro-2H-spiro[naphthalene-1,22′-[20]oxa[13]thia[1,14]diazatetracyclo[14.7.2.0^3,6.0^19,24]pentacosa [8,16,18,24]tetraen]-7′-yl)oxy)-N-(2,2,2-trifluoroethyl)acetamide] | 0.654 nM | 478 nM | – | – | –

Second part, led by results:

IC50 [1, 3] | IC50 [2, 4] | IC50 [1, 5] | Compound | IC50 ([2]; 16 h incubation) | IC50 ([2]; 16 h)
2.58 nM | 13000 nM | – | O=C1NS(=O)(=O)[C@H]2C[C@@H](CC[C@H](O)[C@@H]3CC[C@H]3CN3C[C@@]4(CCCc5cc(Cl)ccc54)COc4ccc1cc43)C2 [Example 101, (1S,3′R,6′R,7′S,10′S,12′S)-6-chloro-7′-hydroxy-3,4-dihydro-2H,15′H-spiro[naphthalene-1,22′-[20]oxa[13]thia[1,14]diazapentacyclo[14.7.2.1^10,120^3,6.0^19,24]hexacosa[16,18,24]trien]-15′-one 13′,13′-dioxide] | – | –
– | 19700 nM | 1 nM | O=C1NS(=O)(=O)C/C=C/C2(O)CCOC(C2)C2CCC2CN2CC3(CCCc4cc(Cl)ccc43)COc3ccc1cc32 (single isomer, unassigned) [Example 851] | – | –
4.27 nM | 7450 nM | – | CCN1[C@H](C)C/C=C/[C@H](O)[C@@H]2CC[C@H]2CN2C[C@@]3(CCCc4cc(Cl)ccc43)COc3ccc(cc32)C(=O)NS1(=O)=O [Example 59, (1S,3′R,6′R,7′S,8′E,11R)-6-chloro-12′-ethyl-7′-hydroxy-11′-methyl-3,4-dihydro-2H,15′H-spiro[naphthalene-1,22′-[20]oxa[13]thia[1,12,14]triazatetracyclo[14.7.2.0^3,6.0^19,24]pentacosa[8,16,18,24]tetraen]-15′-one 13′,13′-dioxide] | – | –
– | 1760 nM | 3.21 nM | CCOC(=O)CO[C@H]1/C=C/C[C@H](C)[C@H](C)S(=O)(=O)NC(=O)c2ccc3c(c2)N(C[C@@H]2CC[C@H]21)C[C@@]1(CCCc2cc(Cl)ccc21)CO3 [Example 738, ethyl (((1S,3′R,6′R,7′S,8′E,11′S,12′S)-6-chloro-11′,12′-dimethyl-13′,13′-dioxido-15′-oxo-3,4-dihydro-2H-spiro[naphthalene-1,22′-[20]oxa[13]thia[1,14]diazatetracyclo[14.7.2.0^3,6.0^19,24]pentacosa[8,16,18,24]tetraen]-7′-yl)oxy)acetate] | – | –
0.593 nM | 442 nM | – | CO[C@H]1C[C@@H](N2[C@@H](C)C/C=C/[C@H](O)[C@@H]3CC[C@H]3CN3C[C@@]4(CCCc5cc(Cl)ccc54)COc4ccc(cc43)C(=O)NS2(=O)=O)C1 [Example 77, (1S,3′R,6′R,7′S,8′E,11′S)-6-chloro-7′-hydroxy-12′-(cis-3-methoxycyclobutyl)-11′-methyl-3,4-dihydro-2H,15′H-spiro[naphthalene-1,22′-[20]oxa[13]thia[1,12,14]triazatetracyclo[14.7.2.0^3,6.0^19,24]pentacosa[8,16,18,24]tetraen]-15′-one 13′,13′-dioxide] | – | –
